The subject of test [1] is TNF-α. Description: TNF-α production in RAW264.7 cells stimulated with LPSp (Example 7). The format is cell-based, mouse. The note with it: final 1 ng/mL to 10 μg/mL, then LPSp 100 ng/mL, FIG. 7. How it is done: The culture medium was added to mouse macrophage cells (RAW264.7, ATCC) to prepare solutions at concentrations of 4×10^5 cells/mL. The solutions were seeded in 96-well flat-bottomed plates in 100 μL portions, i.e., 4×10^4 cells/100 μL/well. After seeding, the cells were incubated at 37° C. in 5% CO2 for 2 hours until they adhered to the bottoms of the wells and extended. Next, 100 μL of the test solution was added to each well. After adding the test solution, the cells were incubated at 37° C. in a 5% CO2 for 24 hours. After the incubation, the culture supernatant of the wells was removed, 150 μl of the above-mentioned culture solution was newly added (hereinafter, this step is referred to as a “culture solution adding step”), and the wells were incubated at 37° C. in a 5% CO2 for 24 hours.
After incubation, 50 μl of culture supernatant from each well was collected, transferred to each well of new 96-well flat-bottom plates, and absorbance was measured using mouse TNF a assay kit (manufactured by Biolegend) and converted to TNF-α concentrations.
In this example, an experiment was carried out in the same manner as in Example 6 except for the following two points, and 50 μL of culture supernatant of each well was collected and TNF-α concentration was measured. That is, in this example, a total of five test solutions were used as the test solution, in which the concentration of the purified product was 20 μg/mL, 2 μg/mL, 200 ng/mL, 20 ng/mL, and 2 ng/mL. Since the five test solutions are diluted twice when added to the cells, the final concentrations of the purified products are 10 μg/mL, 1 μg/mL, 100 ng/mL, 10 ng/mL, and 1 ng/mL, respectively. In this example, in the culture medium adding step in Example 5, 150 μL of the culture medium containing LPSp at a final concentration of 100 ng/mL was added instead of 150 μL of the culture medium.

Test [2] has as its system IL-6. Put plainly: IL-6 production in THP-1 cells stimulated with LPSp, with or without PPARγ inhibitor GW9662 (Example 8-1). In kind it is cell-based, human. The settings on record: final 100, 1,000 and 10,000 ng/mL, LPSp 100 ng/mL, GW9662- (PPARγ not inhibited), FIG. 8. How it is done: In the same manner as “(1) Preparation of test solution” in Example 3, a solution having a concentration of the purified product of 20,000 ng/mL was prepared, and the solution was serially diluted with a culture solution having the following composition, thereby obtaining a total of three test solutions having a concentration of 400 ng/mL, 4,000 ng/mL, and 40000 ng/mL. Since the three test solutions are diluted four-fold when added to the cells, the final concentrations of the purified products are 100 ng/mL, 1,000 ng/mL, and 10,000 ng/mL, respectively.
The culture medium was added to cells derived from human peripheral blood monocytes (THP-1, manufactured by DS Pharma Biomedical Co., Ltd.) to prepare solutions in which the concentrations of the cells were 4×10^5 cells/mL. The solutions were seeded in 24 well plates in 500 μL portions, i.e., 2.0×10^5 cells/500 μL/well. After seeding, 250 μL of the culture medium or 250 μL of the culture medium containing 40 μmol/L of GW9662 (manufactured by Wako Pure Chemical Industries, Ltd.) was added to the wells. The GW9662 is an inhibitor of PPARγ (Peroxisome proliferator-activated receptor γ) which is one type of nuclear receptor. After the addition, the mixture was incubated at 37° C. in a 5% CO2 for 1 hour. Thereafter, 250 μl of the test solution was added to each well, and the wells were incubated at 37° C. in a 5% CO2 for 22 hours. After culturing, the culture supernatant of each well was collected in a 2 mL tube. A new 0.5 mL of the culture medium was added to each well, spread over the whole well, and collected in the 2 mL tube. To each empty well was added 0.49 mL of fresh culture medium. The culture solution collected in the 2 mL tube was centrifuged at 1,000 rpm for 5 minutes, the supernatant was removed, and 1 mL of the fresh culture solution was added to suspend, and centrifuged again under the same conditions. After centrifugation, the supernatant was removed and 0.49 mL of culture medium in each well was added to the 2 mL tube, suspended and returned to each well. Then, 250 μL of the culture medium or 250 μL of the culture medium containing 40 μmol/L of the above GW9662 was added to the wells, and the wells were cultured at 37° C. in a 5% CO2 for 1 hour. After the incubation, 250 μL of the culture medium containing LPSp was added to the wells so that the final concentration of the LPSp was 100 ng/mL, and the wells were incubated at 37° C. in a 5% CO2 for 22 hours.
After culturing, the culture supernatants of the wells were collected in tubes, centrifuged, and the supernatants were collected in 1.5-mL tubes. The absorbance was measured using Human IL-6 ELISA MAX Deluxe (Biolegend Corporation), and the concentrations of Interleukin-6 (IL-6) were calculated.

Turning to `CCCCCC/C=C/CCCCCC(=O)OC(CCCCCCCCCCC)CC(=O)NC1C(OCC2OC(OP(=O)(O)O)C(NC(=O)CC(=O)CCCCCCCCCCC)C(OC(=O)CC(O)CCCCCCC)C2O)OC(COC2(C(=O)O)CC(OC3(C(=O)O)CC(OC4OC(C(=O)O)C(OC5OC(CO)C(O)C(O)C5O)C(O)C4O)C(O)C(C(O)CO)O3)C(OC3OC(COP(=O)(O)O)C(OC4OC(CO)C(O)C(O)C4O)C(O)C3O)C(C(O)CO)O2)C(OP(=O)(O)O)C1OC(=O)CC(O)CCCCCCC` (centres unmarked) [Formula (A1)], the “TNF-α concentration in culture supernatant” value (“TNF-α concentration” for short) in test [1] is listed as “Equivalent results were obtained”. The “IL-6 concentration in culture supernatant” value (from here on “IL-6 concentration”) in test [2] is on record as “Equivalent results were obtained”.

For the compound `CCCCCC/C=C/CCCCCC(=O)OC(CCCCCCCCCCC)CC(=O)NC1C(OCC2OC(OP(=O)(O)O)C(NC(=O)CC(=O)CCCCCCCCCCC)C(OC(=O)CC(O)CCCCCCC)C2O)OC(COC2(C(=O)O)CC(OC3(C(=O)O)CC(OC4OC(C(=O)O)C(OC5OC(CO)C(O)C(O)C5O)C(O)C4O)C(O)C(C(O)CO)O3)C(OC3OC(CO)C(O)C(O)C3O)C(C(O)CO)O2)C(OP(=O)(O)O)C1OC(=O)CC(O)CCCCCCC` (centres unmarked) [Formula (A2)], in test [1], the “TNF-α concentration” value was “Equivalent results were obtained”. In test [2], the “IL-6 concentration” value is given as “Equivalent results were obtained”.

Regarding `CCCCCC/C=C/CCCCCC(=O)OC(CCCCCCCCCCC)CC(=O)NC1C(OCC2OC(OP(=O)(O)O)C(NC(=O)CC(=O)CCCCCCCCCCC)C(OC(=O)CC(O)CCCCCCC)C2O)OC(COC2(C(=O)O)CC(OC3(C(=O)O)CC(O)C(OC4OC(C(=O)O)C(OC5OC(CO)C(O)C(O)C5O)C(O)C4O)C(C(O)CO)O3)C(OC3OC(COP(=O)(O)O)C(OC4OC(CO)C(O)C(O)C4O)C(O)C3O)C(C(O)CO)O2)C(OP(=O)(O)O)C1OC(=O)CC(O)CCCCCCC` (centres unmarked) [Formula (B1)], in test [1], the “TNF-α concentration” value is recorded as “Equivalent results were obtained”. Besides, the “IL-6 concentration” value in test [2] was “Equivalent results were obtained”.

`CCCCCC/C=C/CCCCCC(=O)OC(CCCCCCCCCCC)CC(=O)NC1C(OCC2OC(OP(=O)(O)O)C(NC(=O)CC(=O)CCCCCCCCCCC)C(OC(=O)CC(O)CCCCCCC)C2O)OC(COC2(C(=O)O)CC(OC3(C(=O)O)CC(O)C(OC4OC(C(=O)O)C(OC5OC(CO)C(O)C(O)C5O)C(O)C4O)C(C(O)CO)O3)C(OC3OC(CO)C(O)C(O)C3O)C(C(O)CO)O2)C(OP(=O)(O)O)C1OC(=O)CC(O)CCCCCCC` (centres unmarked) [Formula (B2)]: the “TNF-α concentration” value in test [1] is “Equivalent results were obtained”. Besides, the “IL-6 concentration” value in test [2] is on record as “Equivalent results were obtained”.

(Values after patent US20190177440A1, “COMPOUND OR SALT THEREOF, ANTI-INFLAMMATORY AGENT, ANTI-CANCER AGENT AGAINST LUNG CANCER, METHOD OF PRODUCING COMPOUND OR SALTS THEREOF, METHOD OF TREATING INFLAMMATORY DISEASES AND METHOD OF TREATING LUNG CANCER” (TFK CO., LTD., priority 2016, published 2019).)
